Patent publication US10696639B2, “Heterocyclic compounds as HIV protease inhibitors” (Merck Sharp & Dohme Corp., priority 2016, dated 2020)

target: T1, wild-type HIV-1 protease (Human immunodeficiency virus type 1 group M subtype B, UniProt P04585); assay: Assay for Inhibition of Microbial Expressed HIV Protease; assay type: biochemical; conditions: E. coli expressed wild-type HIV-1 protease, peptide substrate cleavage, LC-MS readout; mean of at least two independent experiments; read-out: HIV Pr Enzyme HIV1 PR IC50
T1 construct: Escherichia coli expressed wild-type HIV-1 protease protein; made in house; host or cells: Escherichia coli
Description: Assay for Inhibition of Microbial Expressed HIV Protease
Inhibition of Escherichia coli expressed wild-type HIV-1 protease protein was carried out with a peptide substrate [Val-Ser-Gln-Asn-(βnaphtyl)Ala-Pro-Ile-Val]. The inhibitor compound was preincubated with HIV-1 protease enzyme in assay buffer (50 mM sodium acetate, pH 5.5, 100 mM NaCl, and 0.1% BSA) for 30 minutes at room temperature. Peptide substrate was added to […] in a total volume of 20 μL containing 20 pM HIV-1 protease (final) after which the reaction was incubated for 1 hour at 30° C. The reaction was quenched by the addition of formic acid and HIV protease inhibitor indinavir to 0.012% and 150 nM final concentrations, respectively. Product formation was determined after separation of product and substrate on a ZORBAX Eclipse XDB-C18 column (Aligent Technologies, Santa Clara, Calif., USA) connected to an API 4000™ mass spectrometer (AB Sciex, Pte. Ltd., Concord Ontario, Canada) with multiple reaction monitoring (transitions were 644.5/428.9 and 615.4/422.2 (M1/M3) for product and indinavir respectively). The extent of inhibition of the reaction was determined from the peak area of the products. Analysis of the products, independently synthesized, provided quantitation standards and confirmation of the product composition.

Compared with COC(=O)N[C@@H](Cc1cccc(Cl)c1)C(=O)NC(CCCN1C(=N)N[C@](CC(C)C)(c2ccccc2)C1=O)CC1CC1 (stereo partly drawn) [Example 30, 3-chloro-N-{1-(cyclopropylmethyl)-4-[(4R)-2-imino-4-(2-methylpropyl)-5-oxo-4-phenylimidazolidin-1-yl]butyl}-N-alpha-(methoxycarbonyl)-L-phenylalaninamide], COC(=O)N[C@@H](Cc1cccc(Cl)c1)C(=O)N[C@H](CCCN1C(=N)N[C@](CC(C)C)(c2ccccc2)C1=O)C1CC1 [Example 32, 3-chloro-N-{(1R)-1-cyclopropyl-4-[(4R)-2-imino-4-(2-methylpropyl)-5-oxo-4-phenylimidazolidin-1-yl]butyl}-N-alpha-(methoxycarbonyl)-L-phenylalaninamide] is 2.3-fold lower in IC50: 97 nM for the first, 43 nM for the second.

Compared with COC(=O)N[C@@H](Cc1ccccc1Cl)C(=O)NC(CCCN1C(=N)N[C@](CC(C)C)(c2ccccc2)C1=O)CC1CC1 (stereo partly drawn) [Example 31, 2-chloro-N-{1-(cyclopropylmethyl)-4-[(4R)-2-imino-4-(2-methylpropyl)-5-oxo-4-phenylimidazolidin-1-yl]butyl}-N-alpha-(methoxycarbonyl)-L-phenylalaninamide_], COC(=O)N[C@@H](Cc1ccccc1Cl)C(=O)N[C@H](CCCN1C(=N)N[C@](CC(C)C)(c2ccccc2)C1=O)C1CC1 [Example 33, 2-chloro-N-{(1R)-1-cyclopropyl-4-[(4R)-2-imino-4-(2-methylpropyl)-5-oxo-4-phenylimidazolidin-1-yl]butyl}-N-alpha-(methoxycarbonyl)-L-phenylalaninamide] is 3.5-fold lower in IC50: 80 nM for the first, 23 nM for the second.

COC(=O)N[C@@H](Cc1ccccc1Cl)C(=O)N[C@@H](C)CCCN1C(=N)N[C@](CC(C)C)(c2ccccc2)C1=O [Example 34, 2-chloro-N-{(1S)-4-[(4R)-2-imino-4-(2-methylpropyl)-5-oxo-4-phenylimidazolidin-1-yl]-1-methylbutyl}-N-alpha-(methoxycarbonyl)-L-phenylalaninamide] and COC(=O)N[C@@H](Cc1ccccc1Cl)C(=O)N[C@H](CCCN1C(=N)N[C@](CC(C)C)(c2ccccc2)C1=O)C(C)C [Example 44, 2-chloro-N-[(1R)-4-[(4R)-2-imino-4-(2-methylpropyl)-5-oxo-4-phenylimidazolidin-1-yl]-1-(1-methylethyl)butyl]-N-alpha-(methoxycarbonyl)-L-phenylalaninamide] are within 1.5-fold of each other in IC50: 18 nM for the first, 20 nM for the second.

First: COC(=O)N[C@@H](Cc1cccc(Cl)c1)C(=O)N[C@@H](C)CCCN1C(=N)N[C@](CC(C)C)(c2ccccc2)C1=O [Example 35, 3-chloro-N-{(1S)-4-[(4R)-2-imino-4-(2-methylpropyl)-5-oxo-4-phenylimidazolidin-1-yl]-1-methylbutyl}-N-alpha-(methoxycarbonyl)-L-phenylalaninamide]
Second: COC(=O)N[C@@H](Cc1cccc(Cl)c1)C(=O)N[C@H](CCCN1C(=N)N[C@](CC(C)C)(c2ccccc2)C1=O)C(C)C [Example 43, 3-chloro-N-[(1R)-4-[(4R)-2-imino-4-(2-methylpropyl)-5-oxo-4-phenylimidazolidin-1-yl]-1-(1-methylethyl)butyl]-N-alpha-(methoxycarbonyl)-L-phenylalaninamide]
The IC50 of the first is 4-fold higher: 20 nM for the first, 5 nM for the second. The second is the more potent here.

Going from COC(=O)N[C@@H](Cc1ccccc1)C(=O)N[C@H](CCCN1C(=N)N[C@](CC(C)C)(c2ccccc2)C1=O)C1CC1 [Example 36, N-{(1R)-1-cyclopropyl-4-[(4R)-2-imino-4-(2-methylpropyl)-5-oxo-4-phenylimidazolidin-1-yl]butyl}-N-alpha-(methoxycarbonyl)-L-phenylalaninamide] to CC[C@@H](CCCN1C(=N)N[C@](CC(C)C)(c2ccccc2)C1=O)NC(=O)[C@H](Cc1ccccc1)NC(=O)OC [Example 47, N-{(1S)-1-ethyl-4-[(4R)-2-imino-4-(2-methylpropyl)-5 oxo-4-phenylimidazolidin-1 yl]butyl}-N-alpha-(methoxycarbonyl)-L-phenylalaninamide], the IC50 rises from 9 nM to 22 nM (2.4-fold). The first is the more potent here.

Going from COC(=O)N[C@@H](Cc1ccc(Cl)cc1)C(=O)N[C@@H](C)CCCN1C(=N)N[C@](CC(C)C)(c2ccccc2)C1=O [Example 37, 4-chloro-N-{(1S)-4-[(4R)-2-imino-4-(2-methylpropyl)-5-oxo-4-phenylimidazolidin-1-yl]-1-methylbutyl}-N-alpha-(methoxycarbonyl)-L-phenylalamnamide] to CC[C@@H](CCCN1C(=N)N[C@](CC(C)C)(c2ccccc2)C1=O)NC(=O)[C@H](Cc1ccc(Cl)cc1)NC(=O)OC [Example 48, 4-chloro-N-{(1S)-1-ethyl-4-[(4R)-2-imino-4-(2-methylpropyl)-5-oxo-4-phenylimidazolidin-1-yl]butyl}-N-alpha-(methoxycarbonyl)-L-phenylalaninamide], the IC50 falls from 61 nM to 14 nM (4.4-fold).

First: COC(=O)N[C@@H](Cc1cccc2ccccc12)C(=O)N[C@@H](C)CCCN1C(=N)N[C@](CC(C)C)(c2ccccc2)C1=O [Example 38, methyl [(1S)-2-({(1S)-4-[(4R)-2-imino-4-(2-methylpropyl)-5-oxo-4-phenylimidazolidin-1-yl]-1-methylbutyl}amino)-1-(naphthalen-1-ylmethyl)-2-oxoethyl]carbamate]
Second: COC(=O)N[C@@H](Cc1ccc2ccccc2c1)C(=O)N[C@@H](C)CCCN1C(=N)N[C@](CC(C)C)(c2ccccc2)C1=O [Example 42, methyl ((S)-1-(((S)-5-((R)-2-imino-4-isobutyl-5-oxo-4-phenylimidazolidin-1-yl)pentan-2-yl)amino)-3-(naphthalen-2-yl)-1-oxopropan-2-yl)carbamate]
The IC50 of the first is 2-fold lower: 23 nM for the first, 46 nM for the second.

Compared with COC(=O)N[C@@H](Cc1ccccc1OC)C(=O)N[C@@H](C)CCCN1C(=N)N[C@](CC(C)C)(c2ccccc2)C1=O [Example 39, N-{(1S)-4-[(4R)-2-imino-4-(2-methylpropyl)-5-oxo-4-phenylimidazolidin-1-yl]-1-methylbutyl}-2-methoxy-N-alpha-(methoxycarbonyl)-L-phenylalaninamide], COC(=O)N[C@@H](Cc1cccc(OC)c1)C(=O)N[C@@H](C)CCCN1C(=N)N[C@](CC(C)C)(c2ccccc2)C1=O [Example 40, N-{(1S)-4-[(4R)-2-imino-4-(2-methylpropyl)-5-oxo-4-phenylimidazolidin-1-yl]-1-methylbutyl}-3-methoxy-N-alpha-(methoxycarbonyl)-L-phenylalaninamide] is 18-fold higher in IC50: 3 nM for the first, 54 nM for the second. The first is the more potent here.

COC(=O)N[C@@H](CC1CCCCC1)C(=O)N[C@@H](C)CCCN1C(=N)N[C@](CC(C)C)(c2ccccc2)C1=O [Example 41, methyl [(1S)-1-(cyclohexylmethyl)-2-({(1S)-4-[(4R)-2-imino-4-(2-methylpropyl)-5-oxo-4-phenylimidazolidin-1-yl]-1-methylbutyl}amino)-2-oxoethyl]carbamate] and COC(=O)N[C@@H](Cc1ccccc1)C(=O)N[C@H](CCCN1C(=N)N[C@](CC(C)C)(c2ccccc2)C1=O)C(C)C [Example 45, N-[(1R)-4-[(4R)-2-imino-4-(2 methylpropyl)-5-oxo-4-phenylimidazolidin-1-yl]-1-(1 methylethyl)butyl]-N-alpha-(methoxycarbonyl)-L-phenylalaninamide] are within 1.5-fold of each other in IC50: 31 nM for the first, 27 nM for the second.

Going from COC(=O)N[C@@H](Cc1ccccc1)C(=O)N[C@H](CCCN1C(=N)N[C@](CC(C)C)(c2ccccc2)C1=O)C(F)(F)F [Example 46, N-[(1R)-4-[(4R)-2-imino-4-(2-methylpropyl)-5-oxo-4-phenylimidazolidin-1-yl]-1-(trifluoromethyl)butyl]-N-alpha-(methoxycarbonyl)-L-phenylalaninamide] to CC[C@@H](CCCN1C(=N)N[C@](CC(C)C)(c2ccccc2)C1=O)NC(=O)[C@H](Cc1cccc(Cl)c1)NC(=O)OC [Example 49, 3-chloro-N-{(1S)-1-ethyl-4-[(4R)-2-imino-4-(2-methylpropyl)-5-oxo-4-phenylimidazolidin-1-yl]butyl}-N-alpha-(methoxycarbonyl)-L-phenylalaninamide], the IC50 falls from 32 nM to 15 nM (2.1-fold).

CC[C@@H](CCCN1C(=N)N[C@](CC(C)C)(c2ccccc2)C1=O)NC(=O)[C@H](Cc1ccccc1Cl)NC(=O)OC [Example 50, 2-chloro-N-{(1S)-1-ethyl-4-[(4R)-2-imino-4-(2-methylpropyl)-5-oxo-4-phenylimidazolidin-1-yl]butyl}-N-alpha-(methoxycarbonyl)-L-phenylalaninamide] and COC(=O)N[C@@H](Cc1ccccc1)C(=O)NCCC[C@H](C1CC1)N1C(=N)N[C@](CC(C)C)(c2ccccc2)C1=O [Example 51, N-{(4R)-4-cyclopropyl-4-[(4R)-2-imino-4-(2-methylpropyl)-5-oxo-4-phenylimidazolidin-1-yl]butyl}-N-alpha-(methoxycarbonyl)-L-phenylalaninamide] are within 1.5-fold of each other in IC50: 6 nM for the first, 7 nM for the second.

With COC(=O)N[C@@H](Cc1ccccc1)C(=O)NCCC[C@@H](C1CC1)N1C(=N)N[C@](CC(C)C)(c2ccccc2)C1=O [Example 52, N-{(4S)-4-cyclopropyl-4-[(4R)-2-imino-4-(2-methylpropyl)-5-oxo-4-phenylimidazolidin-1-yl]butyl}-N-alpha-(methoxycarbonyl)-L-phenylalaninamide] the IC50 was 605 nM.
